Experimental data as given in the NIST ThermoML archive (doi:10.1016/j.jct.2019.06.032).
Numbers after ± are expanded uncertainties.

Experiment: xn = mol fraction of the nth substance listed
Conditions: 101 kPa, Liquid; for viscosity: Capillary tube (Ostwald / Ubbelohde) method; for mass density: Vibrating tube method

NCCO [2-aminoethan-1-ol] + O
Conditions	mass density, 293.15 K [kg/m3]	mass density, 303.15 K [kg/m3]	mass density, 313.15 K [kg/m3]	mass density, 323.15 K [kg/m3]	mass density, 333.15 K [kg/m3]	viscosity, 293.15 K [mPa·s]	viscosity, 303.15 K [mPa·s]	viscosity, 313.15 K [mPa·s]	viscosity, 323.15 K [mPa·s]	viscosity, 333.15 K [mPa·s]
x1 = 0.1	1010.9 ± 10	1007 ± 10	1002.5 ± 10	997.4 ± 10	991.7 ± 10	2.669 ± 0.54	1.953 ± 0.4	1.495 ± 0.3	1.147 ± 0.23	0.903 ± 0.18
x1 = 0.1999	1021.1 ± 10	1016 ± 10	1010.6 ± 10	1004.4 ± 10	998 ± 10	5.763 ± 1.2	3.976 ± 0.8	2.388 ± 0.48	1.819 ± 0.37	1.429 ± 0.29
x1 = 0.2998	1027.1 ± 10	1021 ± 10	1014.3 ± 10	1007.5 ± 10	1000.5 ± 10	10.28 ± 2.1	6.221 ± 1.2	4.011 ± 0.81	3 ± 0.6	2.268 ± 0.46
x1 = 0.4	1029.4 ± 10	1022.6 ± 10	1015.5 ± 10	1008.3 ± 10	1000.8 ± 10	15.22 ± 3.1	9.814 ± 2	6.589 ± 1.3	4.621 ± 0.93	3.387 ± 0.68
x1 = 0.4998	1029.3 ± 10	1022 ± 10	1014.6 ± 10	1007 ± 10	999.4 ± 10	19.75 ± 4	12.4 ± 2.5	8.077 ± 1.6	5.671 ± 1.1	4.071 ± 0.81
x1 = 0.5995	1028.1 ± 10	1020.3 ± 10	1012.7 ± 10	1004.9 ± 10	997 ± 10	22.83 ± 4.6	14.17 ± 2.8	9.474 ± 1.9	6.412 ± 1.3	4.784 ± 0.96
x1 = 0.6982	1026.3 ± 10	1018 ± 10	1010.4 ± 10	1002.8 ± 10	994.9 ± 10	24.37 ± 4.9	15.25 ± 3.1	10.05 ± 2	7.035 ± 1.4	4.978 ± 1
x1 = 0.7974	1023.8 ± 10	1015.1 ± 10	1007.1 ± 10	999.4 ± 10	991.5 ± 10	25.19 ± 5	15.62 ± 3.1	10.09 ± 2	7.169 ± 1.4	5.014 ± 1
x1 = 0.8995	1021.2 ± 10	1013 ± 10	1005.1 ± 10	997.2 ± 10	988.1 ± 10	24.62 ± 4.9	15.17 ± 3	10.08 ± 2	7.12 ± 1.4	5.001 ± 1
x1 = 1	1016.9 ± 10	1009.5 ± 10	1001.1 ± 10	992.7 ± 10	984.3 ± 10	23.79 ± 4.8	14.83 ± 3	9.89 ± 2	6.872 ± 1.4	4.99 ± 1

CCN(CC)CCO [(diethylamino)ethanol] + NCCO
Conditions	mass density, 293.15 K [kg/m3]	mass density, 303.15 K [kg/m3]	mass density, 313.15 K [kg/m3]	mass density, 323.15 K [kg/m3]	mass density, 333.15 K [kg/m3]	viscosity, 293.15 K [mPa·s]	viscosity, 303.15 K [mPa·s]	viscosity, 313.15 K [mPa·s]	viscosity, 323.15 K [mPa·s]	viscosity, 333.15 K [mPa·s]
x2 = 0	891.2 ± 10	874.4 ± 10	865.4 ± 10	856.4 ± 10	845.6 ± 10	4.848 ± 0.97	3.41 ± 0.68	2.466 ± 0.49	1.855 ± 0.37	1.431 ± 0.29
x2 = 0.1003	897.2 ± 10	881.4 ± 10	869.8 ± 10	859.4 ± 10	849.2 ± 10	6.52 ± 1.3	3.543 ± 0.71	2.619 ± 0.52	1.952 ± 0.39	1.568 ± 0.31
x2 = 0.2004	906.9 ± 10	892.2 ± 10	881.6 ± 10	871.1 ± 10	861 ± 10	8.275 ± 1.7	3.892 ± 0.78	2.982 ± 0.6	2.149 ± 0.43	1.746 ± 0.35
x2 = 0.2993	920.7 ± 10	906.2 ± 10	897.8 ± 10	887.6 ± 10	879.7 ± 10	10.42 ± 2.1	4.495 ± 0.9	3.501 ± 0.7	2.658 ± 0.53	2.107 ± 0.42
x2 = 0.4003	931.6 ± 10	918 ± 10	910.5 ± 10	901.2 ± 10	891.8 ± 10	12.32 ± 2.5	5.526 ± 1.1	4.04 ± 0.81	2.925 ± 0.59	2.426 ± 0.49
x2 = 0.5001	941 ± 10	929.9 ± 10	920.1 ± 10	910.2 ± 10	902.3 ± 10	13.76 ± 2.8	6.483 ± 1.3	4.629 ± 0.93	3.314 ± 0.66	2.767 ± 0.55
x2 = 0.6001	952.2 ± 10	942.1 ± 10	935 ± 10	926.9 ± 10	915.8 ± 10	15.98 ± 3.2	7.382 ± 1.5	5.072 ± 1	3.651 ± 0.73	3.007 ± 0.6
x2 = 0.7007	965.8 ± 10	954.2 ± 10	944.6 ± 10	935.9 ± 10	927.9 ± 10	17.27 ± 3.5	8.567 ± 1.7	5.754 ± 1.2	4.046 ± 0.81	3.273 ± 0.66
x2 = 0.8001	981.8 ± 10	971.6 ± 10	963 ± 10	954.3 ± 10	946.2 ± 10	19.77 ± 4	10.57 ± 2.1	7.21 ± 1.4	4.954 ± 0.99	3.651 ± 0.73
x2 = 0.9	999.8 ± 10	991.5 ± 10	982.7 ± 10	974.3 ± 10	965.5 ± 10	22.75 ± 4.6	13.44 ± 2.7	8.826 ± 1.8	6.018 ± 1.2	4.413 ± 0.88

CCN(CC)CCO [(diethylamino)ethanol] + O
Conditions	mass density, 293.15 K [kg/m3]	mass density, 303.15 K [kg/m3]	mass density, 313.15 K [kg/m3]	mass density, 323.15 K [kg/m3]	mass density, 333.15 K [kg/m3]	viscosity, 293.15 K [mPa·s]	viscosity, 303.15 K [mPa·s]	viscosity, 313.15 K [mPa·s]	viscosity, 323.15 K [mPa·s]	viscosity, 333.15 K [mPa·s]
x1 = 0.1001	982 ± 10	974.2 ± 10	966.6 ± 10	958.5 ± 10	950.1 ± 10	7.938 ± 1.6	5.548 ± 1.1	3.741 ± 0.76	2.623 ± 0.53	1.94 ± 0.39
x1 = 0.2005	962.4 ± 10	953 ± 10	944.3 ± 10	935 ± 10	925.6 ± 10	17.02 ± 3.4	10.01 ± 2	6.284 ± 1.3	4.233 ± 0.85	2.937 ± 0.59
x1 = 0.2997	946.6 ± 10	936.8 ± 10	926.9 ± 10	917.5 ± 10	907.6 ± 10	20.5 ± 4.1	11.01 ± 2.2	7.194 ± 1.4	4.584 ± 0.92	3.15 ± 0.63
x1 = 0.3978	933.4 ± 10	923.2 ± 10	913.9 ± 10	903.7 ± 10	893.9 ± 10	20.32 ± 4.1	9.991 ± 2	6.145 ± 1.2	4.058 ± 0.81	2.963 ± 0.59
x1 = 0.4997	922.2 ± 10	912 ± 10	901.8 ± 10	892 ± 10	882.4 ± 10	17.73 ± 3.5	9.074 ± 1.8	5.477 ± 1.1	3.605 ± 0.72	2.593 ± 0.52
x1 = 0.5992	914.4 ± 10	903.2 ± 10	892.8 ± 10	882.3 ± 10	872.5 ± 10	14.8 ± 3	8.421 ± 1.7	5.078 ± 1	3.05 ± 0.61	2.4 ± 0.48
x1 = 0.6897	906.3 ± 10	894.8 ± 10	884.2 ± 10	873.9 ± 10	864.7 ± 10	12.42 ± 2.5	7.125 ± 1.4	4.663 ± 0.93	2.692 ± 0.54	2.102 ± 0.42
x1 = 0.7997	899.6 ± 10	887.4 ± 10	876.9 ± 10	867.4 ± 10	857.3 ± 10	9.723 ± 1.9	6.002 ± 1.2	3.878 ± 0.78	–	1.794 ± 0.36
x1 = 0.8997	895.5 ± 10	880.8 ± 10	870.7 ± 10	861.4 ± 10	851.9 ± 10	7.341 ± 1.5	4.868 ± 0.98	3.402 ± 0.68	2.141 ± 0.43	1.619 ± 0.32
x1 = 1	891.2 ± 10	874.4 ± 10	865.4 ± 10	856.4 ± 10	845.6 ± 10	4.848 ± 0.97	3.41 ± 0.68	2.466 ± 0.49	1.855 ± 0.37	1.431 ± 0.29
